Positions of bridges follow the written chain, without caps; N, C: chain ends. Non-standard residues stand in square brackets, D forms with d. Residues, ends and D or L forms follow the SMILES beside them. Lys(Me) = CNCCCC[C@H](N)C(=O)O
Columns and labels:
Assay in all cases: cell-based
hNav1.7 = hNav1.7 (Homo sapiens, UniProt Q15858); assay type: cell-based; conditions: IonWorks Quattro, use-dependent block, hNav1.7; read-out: IWQ Use Nav1.7
hNav1.5 = hNav1.5 (Homo sapiens, UniProt Q14524); conditions: IonWorks Quattro, use-dependent block, hNav1.5; read-out: IWQ Use Nav1.5
hNav1.3 = hNav1.3 (Homo sapiens, UniProt Q9NY46); conditions: IonWorks Quattro, use-dependent block, hNav1.3; read-out: IWQ Use Nav1.3
Chain of hNav1.3 (Q9NY46 whole entry, looked up): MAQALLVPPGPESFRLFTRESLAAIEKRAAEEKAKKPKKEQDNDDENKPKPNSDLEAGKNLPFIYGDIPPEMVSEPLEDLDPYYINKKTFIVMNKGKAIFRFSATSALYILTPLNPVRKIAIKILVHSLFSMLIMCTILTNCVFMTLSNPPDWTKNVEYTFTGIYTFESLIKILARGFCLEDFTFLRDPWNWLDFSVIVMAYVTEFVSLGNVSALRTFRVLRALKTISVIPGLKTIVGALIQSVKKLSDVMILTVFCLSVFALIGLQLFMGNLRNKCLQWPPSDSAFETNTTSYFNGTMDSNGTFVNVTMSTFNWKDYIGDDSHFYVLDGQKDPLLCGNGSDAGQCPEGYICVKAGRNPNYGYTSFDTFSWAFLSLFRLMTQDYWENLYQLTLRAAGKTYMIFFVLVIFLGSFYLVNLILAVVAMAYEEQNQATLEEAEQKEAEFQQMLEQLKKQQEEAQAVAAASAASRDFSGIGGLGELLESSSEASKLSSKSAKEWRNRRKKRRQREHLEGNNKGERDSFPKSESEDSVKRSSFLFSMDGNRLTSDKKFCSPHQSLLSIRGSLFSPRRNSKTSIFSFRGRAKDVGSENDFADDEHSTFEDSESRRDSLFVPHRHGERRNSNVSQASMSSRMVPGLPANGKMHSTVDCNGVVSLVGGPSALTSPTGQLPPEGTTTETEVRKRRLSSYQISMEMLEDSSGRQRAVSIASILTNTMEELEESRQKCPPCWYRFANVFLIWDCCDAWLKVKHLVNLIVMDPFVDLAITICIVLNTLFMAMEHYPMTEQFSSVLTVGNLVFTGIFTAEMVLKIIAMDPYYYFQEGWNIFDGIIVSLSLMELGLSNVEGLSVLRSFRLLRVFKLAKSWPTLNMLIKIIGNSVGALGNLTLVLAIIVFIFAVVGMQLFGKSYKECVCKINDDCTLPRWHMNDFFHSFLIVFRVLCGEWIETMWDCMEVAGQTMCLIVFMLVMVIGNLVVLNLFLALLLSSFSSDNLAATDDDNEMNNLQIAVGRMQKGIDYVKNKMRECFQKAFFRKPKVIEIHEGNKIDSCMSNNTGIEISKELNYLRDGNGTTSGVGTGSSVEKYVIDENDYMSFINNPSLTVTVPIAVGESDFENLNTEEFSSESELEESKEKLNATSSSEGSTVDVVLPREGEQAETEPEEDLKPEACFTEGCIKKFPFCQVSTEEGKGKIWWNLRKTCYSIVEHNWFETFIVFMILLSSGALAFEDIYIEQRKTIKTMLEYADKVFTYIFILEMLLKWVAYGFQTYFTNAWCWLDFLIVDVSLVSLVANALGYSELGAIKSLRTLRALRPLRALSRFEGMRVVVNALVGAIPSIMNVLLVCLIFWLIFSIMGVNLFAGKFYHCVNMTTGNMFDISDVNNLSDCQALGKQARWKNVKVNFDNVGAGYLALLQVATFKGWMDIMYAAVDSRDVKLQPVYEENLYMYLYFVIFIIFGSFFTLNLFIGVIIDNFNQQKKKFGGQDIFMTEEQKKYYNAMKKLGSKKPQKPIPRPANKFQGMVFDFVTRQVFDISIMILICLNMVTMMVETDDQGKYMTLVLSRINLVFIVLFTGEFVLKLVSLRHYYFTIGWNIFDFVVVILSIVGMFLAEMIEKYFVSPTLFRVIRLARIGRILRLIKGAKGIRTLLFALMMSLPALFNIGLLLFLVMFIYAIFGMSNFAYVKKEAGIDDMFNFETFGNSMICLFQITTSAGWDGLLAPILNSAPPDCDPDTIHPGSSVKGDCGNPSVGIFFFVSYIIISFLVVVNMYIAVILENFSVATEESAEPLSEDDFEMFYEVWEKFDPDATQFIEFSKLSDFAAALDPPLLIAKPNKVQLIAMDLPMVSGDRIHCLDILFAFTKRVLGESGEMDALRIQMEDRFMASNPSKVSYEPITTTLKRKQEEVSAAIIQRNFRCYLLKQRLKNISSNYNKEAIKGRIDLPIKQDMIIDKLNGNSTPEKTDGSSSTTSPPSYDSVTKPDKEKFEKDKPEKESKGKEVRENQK

Chain of hNav1.7 (Q15858 whole entry, looked up): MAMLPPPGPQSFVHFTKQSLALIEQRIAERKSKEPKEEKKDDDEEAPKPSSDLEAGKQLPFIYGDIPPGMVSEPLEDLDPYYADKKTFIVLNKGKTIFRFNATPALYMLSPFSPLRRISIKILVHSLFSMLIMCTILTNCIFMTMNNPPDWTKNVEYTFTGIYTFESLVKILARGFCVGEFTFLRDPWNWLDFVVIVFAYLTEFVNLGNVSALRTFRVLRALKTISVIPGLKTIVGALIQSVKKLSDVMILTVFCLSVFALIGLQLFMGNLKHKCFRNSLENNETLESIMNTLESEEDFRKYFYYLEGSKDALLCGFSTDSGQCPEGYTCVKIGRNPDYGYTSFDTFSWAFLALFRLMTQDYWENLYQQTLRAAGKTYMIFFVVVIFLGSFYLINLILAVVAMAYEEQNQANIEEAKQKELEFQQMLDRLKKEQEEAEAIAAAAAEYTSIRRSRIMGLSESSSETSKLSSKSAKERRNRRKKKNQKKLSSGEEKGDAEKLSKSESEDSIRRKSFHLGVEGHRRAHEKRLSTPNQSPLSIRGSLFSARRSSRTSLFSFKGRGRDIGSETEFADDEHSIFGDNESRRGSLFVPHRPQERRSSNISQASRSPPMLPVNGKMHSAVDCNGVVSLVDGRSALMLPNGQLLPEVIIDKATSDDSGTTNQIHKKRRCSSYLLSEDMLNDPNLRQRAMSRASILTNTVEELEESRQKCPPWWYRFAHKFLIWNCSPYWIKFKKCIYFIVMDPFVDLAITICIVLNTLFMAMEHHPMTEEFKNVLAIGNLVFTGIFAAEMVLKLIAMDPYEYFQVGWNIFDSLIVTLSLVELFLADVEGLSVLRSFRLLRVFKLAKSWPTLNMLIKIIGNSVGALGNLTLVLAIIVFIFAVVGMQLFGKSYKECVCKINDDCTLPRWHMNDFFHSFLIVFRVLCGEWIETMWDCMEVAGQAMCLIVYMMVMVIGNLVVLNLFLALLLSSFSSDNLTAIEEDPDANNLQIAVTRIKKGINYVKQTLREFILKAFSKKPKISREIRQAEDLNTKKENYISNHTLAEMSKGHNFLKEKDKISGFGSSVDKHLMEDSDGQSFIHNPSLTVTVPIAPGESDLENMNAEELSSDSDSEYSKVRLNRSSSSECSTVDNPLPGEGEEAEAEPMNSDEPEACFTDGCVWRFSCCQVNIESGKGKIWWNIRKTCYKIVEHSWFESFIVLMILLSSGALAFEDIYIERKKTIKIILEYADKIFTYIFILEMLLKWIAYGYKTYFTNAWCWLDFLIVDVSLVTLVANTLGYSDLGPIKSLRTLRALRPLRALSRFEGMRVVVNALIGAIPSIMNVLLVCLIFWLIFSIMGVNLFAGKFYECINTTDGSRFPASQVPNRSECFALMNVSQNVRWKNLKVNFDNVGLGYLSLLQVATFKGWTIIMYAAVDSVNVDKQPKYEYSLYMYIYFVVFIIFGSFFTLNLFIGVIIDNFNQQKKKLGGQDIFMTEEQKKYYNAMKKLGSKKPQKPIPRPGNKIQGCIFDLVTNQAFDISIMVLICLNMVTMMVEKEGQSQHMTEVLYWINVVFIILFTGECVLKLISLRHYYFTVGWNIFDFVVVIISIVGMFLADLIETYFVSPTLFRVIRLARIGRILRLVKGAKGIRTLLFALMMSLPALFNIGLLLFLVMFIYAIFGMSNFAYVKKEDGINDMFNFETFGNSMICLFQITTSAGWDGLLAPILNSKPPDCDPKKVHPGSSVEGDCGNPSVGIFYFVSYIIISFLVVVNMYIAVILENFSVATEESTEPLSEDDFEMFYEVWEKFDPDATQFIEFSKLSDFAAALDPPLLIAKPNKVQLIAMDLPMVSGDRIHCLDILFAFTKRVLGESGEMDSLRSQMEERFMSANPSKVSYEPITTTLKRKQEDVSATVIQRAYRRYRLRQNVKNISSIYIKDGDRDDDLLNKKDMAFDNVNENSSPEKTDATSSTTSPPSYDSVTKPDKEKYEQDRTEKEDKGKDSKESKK

| SMILES | IC50 (hNav1.7) | IC50 (hNav1.5) | IC50 (hNav1.3) |
| --- | --- | --- | --- |
| CC[C@H](C)[C@@H]1NC(=O)[C@@H]2CSSC[C@@H]3NC(=O)[C@H](C(C)C)NC(=O)[C@H](CC(C)C)NC(=O)[C@H](CC(N)=O)NC(=O)[C@@H]4CCCN4C(=O)[C@H](CCCNC(=N)N)NC(=O)[C@H](CSSC[C@H](NC(=O)[C@@H](N)CC(=O)O)C(=O)N[C@@H](CC(C)C)C(=O)NCC(=O)N[C@@H](C)C(=O)N[C@@H](CCSC)C(=O)N[C@@H](CCCNC(=N)N)C(=O)N[C@@H](CCCCN)C(=O)N2)NC(=O)[C@H](CSSC[C@@H](C(=O)N[C@@H](CCCCN)C(=O)N[C@@H](Cc2ccc(O)cc2)C(=O)N[C@H](C(=O)N[C@@H](Cc2ccccc2)C(N)=O)C(C)C)NC(=O)[C@H](Cc2c[nH]c4ccccc24)NC(=O)[C@H](CC(=O)O)NC(=O)[C@H](Cc2c[nH]cn2)NC(=O)[C@H]([C@@H](C)O)NC(=O)[C@H](CCCNC(=N)N)NC(=O)[C@H](CO)NC3=O)NC(=O)[C@H](CCCCN)NC(=O)[C@H](CC(=O)O)NC(=O)[C@H](CC(N)=O)NC(=O)[C@H](CC(=O)O)NC(=O)[C@@H]2CCCN2C1=O [compound 769] (H-DCLGAMRKCIPDNDKCCRPNLVCSRTHDWCKYVF-NH2; disulfide 2-17, 9-23, 16-30) | > 5 µM | 39 µM | > 5 µM |
| CC[C@H](C)[C@@H]1NC(=O)[C@@H]2CSSC[C@@H]3NC(=O)[C@H](C(C)C)NC(=O)[C@H](CC(C)C)NC(=O)[C@H](CC(N)=O)NC(=O)[C@@H]4CCCN4C(=O)[C@H](CCCNC(=N)N)NC(=O)[C@H](CSSC[C@H](NC(=O)[C@@H](N)CC(=O)O)C(=O)N[C@@H](CC(C)C)C(=O)NCC(=O)N[C@@H](C)C(=O)N[C@@H](CCSC)C(=O)N[C@@H](CCCNC(=N)N)C(=O)N[C@@H](CCCCN)C(=O)N2)NC(=O)[C@H](CSSC[C@@H](C(=O)N[C@@H](CCCCN)C(=O)N[C@@H](Cc2ccc(O)cc2)C(=O)N[C@H](C(=O)N[C@@H](Cc2ccccc2)C(N)=O)C(C)C)NC(=O)[C@H](Cc2c[nH]c4ccccc24)NC(=O)[C@H](CCSC)NC(=O)[C@H](Cc2c[nH]cn2)NC(=O)[C@H]([C@@H](C)O)NC(=O)[C@H](CCCNC(=N)N)NC(=O)[C@H](CO)NC3=O)NC(=O)[C@H](CCCCN)NC(=O)[C@H](CC(=O)O)NC(=O)[C@H](CC(N)=O)NC(=O)[C@H](CC(=O)O)NC(=O)[C@@H]2CCCN2C1=O [compound 770] (H-DCLGAMRKCIPDNDKCCRPNLVCSRTHMWCKYVF-NH2; disulfide 2-17, 9-23, 16-30) | 1 µM | 45.4 µM | 4.1 µM |
| CC[C@H](C)[C@@H]1NC(=O)[C@@H]2CSSC[C@@H]3NC(=O)[C@H](C(C)C)NC(=O)[C@H](CC(C)C)NC(=O)[C@H](CC(N)=O)NC(=O)[C@@H]4CCCN4C(=O)[C@H](CCCNC(=N)N)NC(=O)[C@H](CSSC[C@H](NC(=O)[C@@H](N)CC(=O)O)C(=O)N[C@@H](CC(C)C)C(=O)NCC(=O)N[C@@H](C)C(=O)N[C@@H](CCSC)C(=O)N[C@@H](CCCNC(=N)N)C(=O)N[C@@H](CCCCN)C(=O)N2)NC(=O)[C@H](CSSC[C@@H](C(=O)N[C@@H](CCCCN)C(=O)N[C@@H](Cc2ccc(O)cc2)C(=O)N[C@H](C(=O)N[C@@H](Cc2ccccc2)C(N)=O)C(C)C)NC(=O)[C@H](Cc2c[nH]c4ccccc24)NC(=O)[C@H](CCCCNC)NC(=O)[C@H](Cc2c[nH]cn2)NC(=O)[C@H]([C@@H](C)O)NC(=O)[C@H](CCCNC(=N)N)NC(=O)[C@H](CO)NC3=O)NC(=O)[C@H](CCCCN)NC(=O)[C@H](CC(=O)O)NC(=O)[C@H](CC(N)=O)NC(=O)[C@H](CC(=O)O)NC(=O)[C@@H]2CCCN2C1=O [compound 771] (H-DCLGAMRKCIPDNDKCCRPNLVCSRTH[Lys(Me)]WCKYVF-NH2; disulfide 2-17, 9-23, 16-30) | 1.6 µM | 40.1 µM | 1.8 µM |
| CSCC[C@@H]1NC(=O)[C@H]([C@@H](C)O)NC(=O)CNC(=O)[C@H](CC(C)C)NC(=O)[C@@H](NC(=O)[C@@H](N)CC(=O)O)CSSC[C@@H]2NC(=O)[C@@H]3CSSC[C@@H](C(=O)N[C@@H](CCCCN)C(=O)N[C@@H](Cc4ccc(O)cc4)C(=O)N[C@H](C(=O)N[C@@H](Cc4ccccc4)C(N)=O)C(C)C)NC(=O)[C@H](Cc4c[nH]c5ccccc45)NC(=O)[C@H](CCCCN)NC(=O)[C@H](Cc4c[nH]cn4)NC(=O)[C@H]([C@@H](C)O)NC(=O)[C@H](CCCNC(=N)N)NC(=O)[C@H](CO)NC(=O)[C@H](CSSC[C@H](NC(=O)[C@H](CCCCN)NC(=O)[C@H](CCCNC(=N)N)NC1=O)C(=O)N[C@@H](CC(=O)O)C(=O)N1CCC[C@H]1C(=O)N[C@@H](CCC(=O)O)C(=O)N[C@@H](CC(N)=O)C(=O)N[C@@H](CC(=O)O)C(=O)N[C@@H](CCCCN)C(=O)N3)NC(=O)[C@H](C(C)C)NC(=O)[C@H](CC(C)C)NC(=O)[C@H](CC(N)=O)NC(=O)[C@@H]1CCCN1C(=O)[C@H](CCCNC(=N)N)NC2=O [compound 773] (H-DCLGTMRKCDPENDKCCRPNLVCSRTHKWCKYVF-NH2; disulfide 2-17, 9-23, 16-30) | 4.5 µM | 28.4 µM | 3.4 µM |
| CC[C@H](C)[C@@H]1NC(=O)[C@@H]2CSSC[C@@H]3NC(=O)[C@H](C(C)C)NC(=O)[C@H](CC(C)C)NC(=O)[C@H](CC(N)=O)NC(=O)[C@@H]4CCCN4C(=O)[C@H](CCCNC(=N)N)NC(=O)[C@H](CSSC[C@H](NC(=O)[C@@H](N)CC(=O)O)C(=O)N[C@@H](CC(C)C)C(=O)NCC(=O)N[C@@H](C)C(=O)N[C@@H](CCSC)C(=O)N[C@@H](CCCNC(=N)N)C(=O)N[C@@H](CCCCN)C(=O)N2)NC(=O)[C@H](CSSC[C@@H](C(=O)N[C@@H](CCCCN)C(=O)N[C@@H](Cc2ccc(O)cc2)C(=O)N[C@H](C(=O)N[C@@H](Cc2ccccc2)C(N)=O)C(C)C)NC(=O)[C@H](Cc2c[nH]c4ccccc24)NC(=O)[C@H](CCCCN)NC(=O)[C@H](Cc2c[nH]cn2)NC(=O)[C@H](CCC(=O)O)NC(=O)[C@H](CCCNC(=N)N)NC(=O)[C@H](CO)NC3=O)NC(=O)[C@H](CCCCN)NC(=O)[C@H](CC(=O)O)NC(=O)[C@H](CC(N)=O)NC(=O)[C@H](CC(=O)O)NC(=O)[C@@H]2CCCN2C1=O [compound 787] (H-DCLGAMRKCIPDNDKCCRPNLVCSREHKWCKYVF-NH2; disulfide 2-17, 9-23, 16-30) | > 5 µM | 27.3 µM | > 5 µM |
| CC[C@H](C)[C@@H]1NC(=O)[C@@H]2CSSC[C@@H]3NC(=O)[C@H](C(C)C)NC(=O)[C@H](CC(C)C)NC(=O)[C@H](CC(N)=O)NC(=O)[C@@H]4CCCN4C(=O)[C@H](CCCNC(=N)N)NC(=O)[C@H](CSSC[C@H](NC(=O)[C@@H](N)CC(=O)O)C(=O)N[C@@H](CC(C)C)C(=O)NCC(=O)N[C@@H](C)C(=O)N[C@@H](CCSC)C(=O)N[C@@H](CCCNC(=N)N)C(=O)N[C@@H](CCCCN)C(=O)N2)NC(=O)[C@H](CSSC[C@@H](C(=O)N[C@@H](CCCCN)C(=O)N[C@@H](Cc2ccc(O)cc2)C(=O)N[C@H](C(=O)N[C@@H](Cc2ccccc2)C(N)=O)C(C)C)NC(=O)[C@H](Cc2c[nH]c4ccccc24)NC(=O)[C@H](CCCCN)NC(=O)[C@H](CCC(=O)O)NC(=O)[C@H]([C@@H](C)O)NC(=O)[C@H](CCCNC(=N)N)NC(=O)[C@H](CO)NC3=O)NC(=O)[C@H](CCCCN)NC(=O)[C@H](CC(=O)O)NC(=O)[C@H](CC(N)=O)NC(=O)[C@H](CC(=O)O)NC(=O)[C@@H]2CCCN2C1=O [compound 788] (H-DCLGAMRKCIPDNDKCCRPNLVCSRTEKWCKYVF-NH2; disulfide 2-17, 9-23, 16-30) | > 5 µM | 29.7 µM | > 5 µM |
| CC[C@H](C)[C@@H]1NC(=O)[C@@H]2CSSC[C@@H]3NC(=O)[C@H](C(C)C)NC(=O)[C@H](CC(C)C)NC(=O)[C@H](CC(N)=O)NC(=O)[C@@H]4CCCN4C(=O)[C@H](CCCNC(=N)N)NC(=O)[C@H](CSSC[C@H](NC(=O)[C@@H](N)CC(=O)O)C(=O)N[C@@H](CC(C)C)C(=O)NCC(=O)N[C@@H](C)C(=O)N[C@@H](CCSC)C(=O)N[C@@H](CCCNC(=N)N)C(=O)N[C@@H](CCCCN)C(=O)N2)NC(=O)[C@H](CSSC[C@@H](C(=O)N[C@@H](CCC(=O)O)C(=O)N[C@@H](Cc2ccc(O)cc2)C(=O)N[C@H](C(=O)N[C@@H](Cc2ccccc2)C(N)=O)C(C)C)NC(=O)[C@H](Cc2c[nH]c4ccccc24)NC(=O)[C@H](CCCCN)NC(=O)[C@H](Cc2c[nH]cn2)NC(=O)[C@H]([C@@H](C)O)NC(=O)[C@H](CCCNC(=N)N)NC(=O)[C@H](CO)NC3=O)NC(=O)[C@H](CCCCN)NC(=O)[C@H](CC(=O)O)NC(=O)[C@H](CC(N)=O)NC(=O)[C@H](CC(=O)O)NC(=O)[C@@H]2CCCN2C1=O [compound 789] (H-DCLGAMRKCIPDNDKCCRPNLVCSRTHKWCEYVF-NH2; disulfide 2-17, 9-23, 16-30) | > 5 µM | 31.8 µM | > 5 µM |
| CC[C@H](C)[C@@H]1NC(=O)[C@@H]2CSSC[C@@H]3NC(=O)[C@H](C(C)C)NC(=O)[C@H](CC(C)C)NC(=O)[C@H](CC(N)=O)NC(=O)[C@@H]4CCCN4C(=O)[C@H](CCCNC(=N)N)NC(=O)[C@H](CSSC[C@H](NC(=O)[C@@H](N)CC(=O)O)C(=O)N[C@@H](CC(C)C)C(=O)NCC(=O)N[C@@H](C)C(=O)N[C@@H](CCSC)C(=O)N[C@@H](CCCNC(=N)N)C(=O)N[C@@H](CCCCN)C(=O)N2)NC(=O)[C@H](CSSC[C@@H](C(=O)N[C@@H](CCCCN)C(=O)N[C@@H](Cc2ccc(O)cc2)C(=O)N[C@H](C(=O)N[C@@H](Cc2ccccc2)C(=O)N[C@@H](CCC(=O)O)C(N)=O)C(C)C)NC(=O)[C@H](Cc2c[nH]c4ccccc24)NC(=O)[C@H](CCCCN)NC(=O)[C@H](Cc2c[nH]cn2)NC(=O)[C@H]([C@@H](C)O)NC(=O)[C@H](CCCNC(=N)N)NC(=O)[C@H](CO)NC3=O)NC(=O)[C@H](CCCCN)NC(=O)[C@H](CC(=O)O)NC(=O)[C@H](CC(N)=O)NC(=O)[C@H](CC(=O)O)NC(=O)[C@@H]2CCCN2C1=O [compound 790] (H-DCLGAMRKCIPDNDKCCRPNLVCSRTHKWCKYVFE-NH2; disulfide 2-17, 9-23, 16-30) | > 5 µM | 28.5 µM | > 5 µM |

— patent US9340590B2 (priority 2011, dated 2016)
